Results on three compounds are retold here after patent publication US11077116B2, “Isoxazole derivatives as inducers of fetal hemoglobin in erythroid precursor cells from beta-thalassemic patients” (RARE PARTNERS SRL, priority 2017, dated 2021).

This test deals with ErPCs (erythroid precursor cells) of β-thalassemic patients. Nature of the test: HPLC analysis of hemoglobins in cell lysates of treated ErPCs (two-phase liquid culture). Format: cell-based, human. The conditions noted are these: for HbF induction: patient Th1 ErPCs (Table II); for HbF induction compared with HU: patient Th10 ErPCs (Table III); for HbF level in treated cells (table title): 100 nM as printed in title. The protocol:
Patients were recruited following all the ethical requirements and the approval of the Ethical Committees of Ferrara Hospital. Blood samples were collected from 23 β-thalassemia patients after signature of the informed consent form.
The effects of isoxazole derivatives on cell growth and differentiation of erythroid precursors cells were determined by employing the two-phase liquid culture system and treated for five days with different concentration of the selected compound.
HPLC analyses were done on cell lysates derived from ErPCs of 23 patients and, through careful comparative analyses, we have monitored and quantified HbF, adult hemoglobins (HbA0 and HbA2) and the presence of α-aggregates. Generally, excess of α-globin chains is present in thalassemic patients that are deficient in β-globins, causing α-aggregates formation and precipitation. The α-aggregates reduction represents an important clinical result usually detectable in the presence of efficient HbF inducers.

Structures are written as SMILES.

For the compound `CCNC(=O)c1noc(-c2cc(C(C)C)c(O)cc2O)c1NC(=O)CCN1CCOCC1` [Compound 2], the “HbF induction” value is recorded as “active in inducing HbF” and the “HbF induction compared with HU” value is “more active than HU in inducing HbF”. The “aggregates α %” value (patient Th1 ErPCs, 50 nM, untreated C− 6.70) is on record as 2.81%. The compound also gave a HbF % (patient Th1 ErPCs, 50 nM, untreated C− 15.47) of 21.67%. Where the note is “patient Th1 ErPCs, 50 nM, untreated C− 31.29”, the HbA2 % is 24.82%. Under “patient Th1 ErPCs, 50 nM, untreated C− 46.54”, this compound came in with a HbA0 % of 50.70%. Also, the “aggregates α %” value (patient Th10 ErPCs, 50 nM, untreated C− 11.15) is on record as 2.02%. This compound also returned a HbF % (patient Th10 ErPCs, 50 nM, untreated C− 17.57) of 36.36%. Further, the HbA2 % (patient Th10 ErPCs, 50 nM, untreated C− 32.02) turned out to be 25.29%. The compound also had a HbA0 % (patient Th10 ErPCs, 50 nM, untreated C− 39.26) of 36.34%.

Consider `CCNC(=O)c1noc(-c2cc(C(C)C)c(O)cc2O)c1NC(=O)c1ccc(OC)cc1` [Compound 1], for which the “HbF induction” value is recorded as “active in inducing HbF” and the “HbF induction compared with HU” value is given as “more active than HU in inducing HbF”. Moreover, the “aggregates α %” value (patient Th1 ErPCs, 85 nM, untreated C− 6.70) was 5.90%. Where the note is “patient Th1 ErPCs, 85 nM, untreated C− 15.47”, the HbF % was 30.30%. The same compound came in with a HbA2 % (patient Th1 ErPCs, 85 nM, untreated C− 31.29) of 21.39%. The HbA0 % (patient Th1 ErPCs, 85 nM, untreated C− 46.54) is reported as 42.41%. For the same compound, the “aggregates α %” value (patient Th10 ErPCs, 85 nM, untreated C− 11.15) was 2.26%. Besides, for the setting “patient Th10 ErPCs, 85 nM, untreated C− 17.57”, the HbF % worked out at 35.54%. This compound also gave a HbA2 % (patient Th10 ErPCs, 85 nM, untreated C− 32.02) of 25.81%. The compound also had a HbA0 % (patient Th10 ErPCs, 85 nM, untreated C− 39.26) of 36.39%.

In the case of `NC(=O)NO` [HU, hydroxyurea, reference compound], the “HbF induction” value is reported as “active in inducing HbF”. For the same compound, under “patient Th1 ErPCs, untreated 15.47%”, the “HbF level in treated cells (table title)” value is given as 24.51%. Also, the “aggregates α %” value (patient Th1 ErPCs, 100 μM, untreated C− 6.70) is on record as 2.80%. The same compound gave a HbF % (patient Th1 ErPCs, 100 μM, untreated C− 15.47) of 24.51%. Under “patient Th1 ErPCs, 100 μM, untreated C− 31.29”, the HbA2 % came to 33.19%. Where the note is “patient Th1 ErPCs, 100 μM, untreated C− 46.54”, this compound returned a HbA0 % of 37.61%. Further, the “HbF level in treated cells (table title)” value (patient Th10 ErPCs, untreated 17.57%) was 19.42%. Further, under “patient Th10 ErPCs, 100 μm, untreated C− 11.15”, the “aggregates α %” value turned out to be 11.55%. Where the note is “patient Th10 ErPCs, 100 μm, untreated C− 17.57”, the HbF % was determined as 19.42%. For the same compound, the HbA2 % (patient Th10 ErPCs, 100 μm, untreated C− 32.02) turned out to be 34.82%. The compound also displayed a HbA0 % (patient Th10 ErPCs, 100 μm, untreated C− 39.26) of 34.22%.
